{"source": "patent US8524861B2", "about": "“Treatment of bacterial infections” (priority 2004, dated 2013)", "key": {"[1]": {"test_system": "Staphylococcus aureus, Pseudomonas aeruginosa, and Streptococcus pneumoniae", "test": "Antibacterial activity, overall statements over the test bacteria", "format": "cell-based", "excerpt": "The inventors conducted exhaustive experiments to assess the antibacterial activity of peptides from apolipoproteins and derivatives thereof. Peptides and derivatives from ApoE and ApoB were a particular focus. […] Example 1 illustrates the efficacy of the polypeptides according to the invention compared to apoE141-149 and apoB3359-3367 (i.e. non-tandem repeats) and other peptides derived from apolipoproteins.\nThe activity of polypeptides in accordance with the invention can be seen in Tables 5, 6, 7 and 8.\n(§1) The peptides were examined for antibacterial efficacy against Staphylococcus aureus. To test the efficacy of peptides, dilutions of test peptides or PBS (for use as a control) were prepared in LB broth, and 100 μl aliquots of these placed in 96-well plates. A vial of planktonic bacterial stock was thawed in a 37° C. incubator and diluted to the level previously determined which would produce log phase growth after overnight incubation (see above). 25 μl of this bacterial dilution was then added to the test wells (some wells containing LB broth without peptide were left without any bacterial inoculation, these being used as a blank). After overnight growth, the concentration of bacteria in individual wells was assessed by measuring absorbance at 620 nm, in a microplate spectrophotometer. The average absorbance of wells for specific concentrations of peptides was calculated, and from this the percentage inhibition (relative to untreated wells) was also calculated and plotted against concentration (along with an estimate of error on that % inhibition).\n(§2) The inventor constructed an expanded library of peptides derived from either apolipoprotein B or apolipoprotein E in order to further evaluate polypeptides in accordance with the invention. Further experiments were then conducted to investigate the antibacterial activity of this peptide library against the bacteria P. aeroginosa, S. aureus and S. pneumoniae. The methods used to determine the IC50 values for each peptide were as described in the Example 1."}, "[2]": {"test_system": "Pseudomonas aeruginosa (ATCC strain 9027)", "format": "cell-based", "conditions": "summary in description", "procedure": "Bacterial Stocks—ATCC derived stock bacteria were obtained from Oxoid Limited. Pseudomonas aeruginosa (ATCC strain 9027) or Staphylococcus aureus (ATCC strain 6538P) were obtained in ‘Cultiloop’ format. Stocks were prepared by inoculating 20 ml of LB broth with a single Cultiloop, and incubating overnight at 37° C. Cells present after overnight incubation were harvested by removing larger aggregates by centrifugation (3000 g, 10 minutes), and withdrawing 16 ml of the supernatant, which was likely to contain mainly planktonic bacteria. To this, 4 ml of sterile glycerol was added (the latter having been sterilised by autoclaving). The resultant suspension was divided between 15× 1 ml cryovials before freezing at −85° C.\nPreliminary experiments were carried out to estimate the amount to dilute bacterial stocks which when on addition of 25 μl of diluted stock to 100 μl of fresh LB broth would result in bacteria in log phase growth after overnight incubation at 37° C.\nas §1\nPeptides in accordance with the invention were also examined for antibacterial efficacy against Pseudomonas aeruginosa using the same technique as described above to calculate the IC50 values.\nPoints were obtained by dividing the average for six treated wells by the average for six untreated wells, and bars show an estimate of the error for these calculated values.\nas §2"}}, "note": "Entries after “also recorded” stand apart in the source; their conditions may differ."}
{"substance": "Ac-LRKLRKRLLLRKLRKRLL-NH2 [MU_10]", "values": [{"measurement": "Antibacterial activity, in words, bacterium not specified", "setting": "[1]", "value": "particularly effective; also recorded: much greater than that of MU43"}, {"measurement": "Effectiveness against Pseudomonadales, in particular P. aeruginosa, in words", "setting": "[2]", "value": "particularly effective"}]}
